Source: US9145542B2, “Method for producing aldehyde from CO2” (The Regents of the University of California, priority 2008, dated 2015)

Tested on: S. elongatus
Test: tolerance of S. elongatus to isobutyraldehyde and isobutanol (growth by OD730)
Type: cell-based, Synechococcus elongatus PCC7942
Experimental: FIGS. 1P-1Q show S. elongatus tolerance to isobutyraldehyde and isobutanol. Effect of isobutyraldehyde (P) or isobutanol (Q) addition on growing cultures of S. elongatus as determined by optical density (OD730). At OD730 ˜1.0, isobutyraldehyde or isobutanol was added to the cultures at final concentration (mg/L) of: 0 (squares), 500 (circles), 750 (triangles), 1000 (diamonds) and 2500 (stars).
The tolerance of S. elongatus to isobutyraldehyde and isobutanol was also measured (FIG. 1P). […] In addition, the isobutyraldehyde tolerance level of S. elongatus is much higher than the concentration found in the culture medium during production. […] Thus, the in situ product removal system effectively avoids toxicity effects.
Wild-type S. elongatus and mutant strains were grown in a modified BG-11 medium with the following modifications: 50 mM NaHCO3 and 10 mg/l thiamine were added. For an experiment with 5% CO2 bubbling, 50 mM NaHCO3 was not added. Cyanobacterial cells were grown at 30° C. under fluorescent light (55 μE s^−1 m^−2), which was provided by eight 86-cm 20-W fluorescent tubes placed 15 cm from the cell culture. Cell growth was monitored by measuring OD730 of each culture.

Row | SMILES | effect on growth (wild-type S. elongatus, the same concentration (750 mg/l) added to growing cultures, growth by OD730) | relative toxicity to the cell (S. elongatus, isobutyraldehyde compared with isobutanol) | tolerated concentration (wild-type S. elongatus, compound added to growing cultures at OD730 ~1.0, growth by OD730)
1 | CC(C)CO [isobutanol] | growth retardation | – | –
2 | CC(C)C=O [isobutyraldehyde] | – | less toxic to the cell than isobutanol | up to 750 mg/l
